Test system: miR-34a promoter
Assay: Bisulfite sequencing of miR-34a promoter CpG methylation after 5Aza-2′dC treatment
Format: cell-based, human
Conditions: LAPC-4 cells
Text: (a) Pattern of CpG methylation in the miR-34a promoter region in prostate epithelial cells and derived cancer cell lines. The depicted region corresponds to 2.5 kbp upstream of the transcriptional start site (TSS, position indicated by arrow). Vertical bars represent CpG-dinucleotides. The position of the p53 binding site is indicated. The horizontal bars indicate amplified PCR products which were sub-cloned and analyzed by sequencing (gray: distal fragment, black: proximal fragment). The combined results obtained by sequencing of 8 independent subclones are shown for each cell line. Black areas represent the degree of cytosine methylation at the respective CpG position. The white shaded areas indicate methylation after treatment of LAPC-4 cells with 5Aza-2′dC. The open rectangles correspond to the regions covered by the MSP primers. IVM DNA was used as positive control for amplification of the M product. BPH1: benign prostate hyperplasia cells immortalized with SV40 large T antigen. IVM: in vitro methylated DNA.
Reversion of genomic methylation. Cells were grown in the presence of 1 μM 5-aza-2′deoxycytidine (5Aza-2′dC, Sigma) for 72 hours and 300 nM trichostatin A (TSA, Sigma) for the last 24 hours. […]
Bisulfite sequencing. […] For each cell line at least 8 individual clones were sequenced on both strands using M13 primers and BigDye terminator, and analyzed on a 3700 capillary sequencer (Applera).

For Nc1ncn([C@H]2C[C@H](O)[C@@H](CO)O2)c(=O)n1 [5Aza-2′dC, 5-aza-2′deoxycytidine], the “level of CpG methylation of miR-34a” value was “reduction in the level of CpG methylation”.

From US20130096185A1, “INACTIVATION OF miR-34a BY ABERRANT CpG METHYLATION IN CANCER” (priority 2008, published 2013)
